This note sets out measurements from article PMC6511062, “Preclinical candidate for the treatment of visceral leishmaniasis that acts through proteasome inhibition” (Proceedings of the National Academy of Sciences of the …, 2019).

Read-outs that look alike come from different tables or passages of the source.

One data set deals with bloodstream T. brucei. Nature of the data set: Cell cycle (FACS) analysis, bloodstream T. brucei. In kind it is cell-based, Trypanosoma brucei. The settings on record: 5x EC50. As to the method: consisted of 1 µL (40 ng) of cDNA, 10 µL of Brilliant III Ultra-Fast QPCR Master Mix (Agilent Technologies), 1 µL (500 nM) each of the forward and reverse primers, and 0.3 µl (30 nM) of reference dye and nuclease-free PCR grade-treated water. PCR was performed using an Agilent Mx3005P machine with the following cycling conditions:
95°C for 3 min; 40 cycles of 95°C for 20 s; then 60 °C for 20 s. The reference gene TERT (Tb927.11.10190, telomerase reverse transcriptase) was used to provide a baseline of transcription levels for normalization of the data. Relative quantification in the tetracycline-induced cell lines were normalized to the un-induced cell line using the […]
h. Morphological analysis […]
(§1) Cultures of bloodstream T. brucei and L. donovani promastigotes at starting cell densities of 5 x 105 were incubated with concentrations of compound 7 equivalent to 5x their respective EC50 values. […] After washing, cell densities were adjusted to 5 × 10^5 cells mL, re-suspended in 500 µL of PBS containing 50 µg/mL propidium iodide, 50 µg/mL RNase and 0.1% Triton X-100, incubated at room temperature for 20 min in the dark and analysed using FACSort analytical flow cytometer using Cellquest software (BD Biosciences). j. […]

The subject of data set [1] is L. donovani promastigotes. The experiment in a line: Morphological analysis by transmission EM. Conditions: two times EC50, 6 h. The format is cell-based, Leishmania donovani. As to the method: Profound morphological changes were evident in parasites treated with compounds from this series. To gain additional insight into these compound-induced changes, L. donovani promastigotes were treated with 7 at a concentration equivalent to two times the established EC50 value for 6 h before analysis by transmission EM. […] In addition, there was a significant accumulation of intracellular vesicles within treated parasites (SI Appendix, Fig. S8). Based on our target identification studies, we reasoned that an inability to recycle key proteins via the proteasome left these parasites overcome by their own waste protein products. […]
95°C for 3 min; 40 cycles of 95°C for 20 s; then 60 °C for 20 s. […] Relative quantification in the tetracycline-induced cell lines were normalized to the un-induced cell line using the […]
as §1

A short description of data set [2]: Pharmacokinetics in male CD-1 mice. The format is in vivo, mouse. As to the method: 5. Intrinsic clearance (CLint) […]
6. Pharmacokinetic studies.
Mouse pharmacokinetic studies were conducted in male CD-1 mice and male beagle dogs. 3 animals per group were used for each study performed.
A dose of 3 mg/kg was administered intravenously, in a bolus form to mice and infused over a 30 min period to dogs. For all the intravenous studies compound were dissolved in 5% DMSO/20% kleptose in saline.
A dose of 10 mg/kg was orally administered by gavage to the two species in a suspension of 1% methylcellulose to investigate oral pharmacokinetics.
Peripheral blood samples were obtained at 5, 15, 30 min, 1, 2, 4, 6 ,8 and 24 h after intravenous administration and 15, 30, 45 min,1, 2, 4, 6, 8 and 24 h after oral administration. Blood was 1/2 diluted with milliQ water and immediately frozen on dry ice until analysis. Quantification was performed by means of LC-MS/MS (API4000), with a lower limit of quantification of 1 ng/mL.
Pharmacokinetic parameters, namely clearance (CL), volume of distribution at steady state (Vss) and bioavailability (F%), were estimated using Phoenix, WinNonLin […]
Data analysis and calculation of pharmacokinetic parameters was performed using Phoenix, WinNonLin Version 6.3.
Following the intravenous administration, the whole blood clearance was calculated

Data set [3] deals with clinically-relevant Leishmania strains. Nature of the data set: Activity in clinically-relevant Leishmania strains. In kind it is cell-based. The source says: Strain Leishmania EC50 (µM) Host Cell EC50 (µM)
Results from one or two (both values shown) biological replicates. […]

In data set [4] the target is chymotrypsin-like activity of the L. donovani proteasome (Leishmania donovani, UniProt A0A3S7XA80+A0ACM8QMP6). The experiment in a line: biochemical.
Method: An in vitro assay was developed that enabled the chymotrypsin-like activity and additional proteolytic activities associated with the proteasome to be directly monitored within proteasome-enriched parasite cell lysates. Likewise, human proteasome from two sources (i.e., commercially pure 26S and enriched proteasome fractions from THP-1 lysates) was tested using the same biochemical assays.
Proteasome enrichment by ultracentrifugation
The protocol described by Kisselev et al.34 was adapted to enrich the proteasomes present in L. donovani and THP1 crude extracts. L. donovani or THP1 cells were resuspended in sucrose buffer (50 mM Tris buffer pH 7.5, 5 mM Magnesium chloride, 1 mM EDTA, 50 mM NaCl, 250 mM sucrose, 2 mM ATP, 1 mM DTT) and lysed by nitrogen cavitation for 15 min (110 bars of 1500 psi). Lysates were centrifuged at 20,000g for 30 min at 4 °C and supernatants containing soluble protein were subjected to an ultracentrifugation step at 300,000g for 2h at 4 °C. The resulting proteasome-containing pellets were resuspended in sucrose buffer and left on ice for 30 min to complete solubilization. Samples were centrifuged for 10 min at 20,000 g to remove insoluble material. Proteins contained in supernatant (proteasome enriched fraction) were measured by Bradford.
Proteasome activity assays
Compounds were dispensed into black 384-well assay plates (Greiner) by acoustic dispensing (LabCyte ECHO). For potency determinations, eleven-point, one in three dilution curves were generated, with a top concentration of 100 µM. Three proteasome activities were measured using a commercially available indirect enzyme-based luminescent assay kit (Promega) with Suc-LLVY-aminoluciferin, Z-LRR-aminoluciferin and Z-nLPnLD-aminoluciferin used as substrates for chymotrypsin-like, trypsin-like and caspase-like activities, respectively. In addition to proteasome samples: L. donovani and THP1-enriched proteasomes, commercially available human purified 26S proteasome (Boston Biochem) was also assessed.
Another data set deals with L. donovani (LV9). The experiment in a line: Mouse model of VL (in vivo efficacy in female Balb/C mice). Also on record: species or system Leishmania donovani. Conditions: 50 mg/kg b.i.d. (10 days PO).
[5] abbreviates: male, CD-1, whole blood, mouse, 3 mg/kg iv bolus.

chymotrypsin-like activity of the L. donovani proteasome, sequence (A0ACM8QMP6 100-302): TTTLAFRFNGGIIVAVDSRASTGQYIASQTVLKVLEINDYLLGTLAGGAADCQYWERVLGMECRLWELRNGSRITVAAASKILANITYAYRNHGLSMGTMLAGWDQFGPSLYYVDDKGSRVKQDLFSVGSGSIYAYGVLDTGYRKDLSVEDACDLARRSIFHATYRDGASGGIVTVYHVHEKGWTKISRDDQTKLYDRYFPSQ
chymotrypsin-like activity of the L. donovani proteasome, sequence (A0A3S7XA80 1-206): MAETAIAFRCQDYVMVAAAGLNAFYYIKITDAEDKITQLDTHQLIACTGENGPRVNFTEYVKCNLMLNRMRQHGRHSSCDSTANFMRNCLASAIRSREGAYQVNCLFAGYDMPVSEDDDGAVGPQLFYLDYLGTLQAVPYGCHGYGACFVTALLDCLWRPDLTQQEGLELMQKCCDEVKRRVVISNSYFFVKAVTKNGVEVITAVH

For the compound `O=C(Nc1ccc(F)c(-c2cn3nc(-c4ccccc4)cnc3n2)c1)N1CCCC1` [Compound 7], the “effect on cell cycle progression” value with bloodstream T. brucei was “accumulation of cells in G2/M”. In data set [1], the “morphological changes (transmission EM)” value was “swelling of promastigotes”.

One may read the clearance as the rate of elimination divided by the concentration. High values mean efficient removal, low ones inefficient removal. Usually half-life stands for how long it takes for the measured level to halve. The low end stands for rapid decline, the high end for slow decline. In general, bioavailability refers to dose-corrected exposure relative to a reference, in per cent. By EC50 is commonly meant the concentration needed to bring the measured effect to its halfway point. In general, IC50 refers to the midpoint of a concentration-inhibition curve. Compound `O=C(Nc1ccc(F)c(-c2ccn3c(N4CCOCC4)cnc3n2)c1)N1CCCC1` [Compound 8] had a clearance in data set [2] (setting [5]) of 40.7 ± 13.6 mL/min/kg. The compound further showed a half-life in data set [2] (setting [5]) of 39 ± 19.2 min. Besides, the Vd in data set [2] (male, CD-1, whole blood, mouse, 3 mg/kg iv bolus, read-out: Vss) worked out at 2.2 L/kg. Besides, the blood clearance in data set [2] (mouse) came out at 41 mL/min per kilogram. Besides, in data set [2] (mouse, 3 mg/kg iv), the “Cl (%LBF)” value is given as 32%. Also, the bioavailability in data set [2] (whole blood, CD-1 male mouse, 10 mg/kg po, read-out: F (oral bioavailability)) was 18%. In addition, the EC50 is about 1000 nM in data set [3] (Leishmania, in vitro, clinical strains incl. LV9, SUKA001, DD8-WT, BHU1, read-out: EC50 against clinical strains); 400 nM in data set [3] (Leishmania, strain MHOM/ET/67/HU3 (LV9), read-out: Leishmania EC50); 1600 nM in data set [3] (Leishmania, strain MHOM/IN/80/DD8, read-out: Leishmania EC50); 600 nM in data set [3] (Leishmania, strain MHOM/IN/2002/BHU1, read-out: Leishmania EC50); 500 nM in data set [3] (Leishmania, strain SUKA001, read-out: Leishmania EC50); 800 nM in data set [3] (strain MHOM/ET/67/HU3 (LV9), read-out: Leishmania EC50). Besides, the IC50 in data set [4] is 160 ± 10 nM. In addition, the “Reduction in parasite burden (compared to the vehicle control group)” value with L. donovani (LV9) was determined as 99.1%.
